Source: patent US20220089638A1, “DITHIOCARBAMATE STAPLED PEPTIDES AND METHODS OF MAKING AND USE THEREOF” (UNIVERSITY OF MARYLAND, BALTIMORE, priority 2019, published 2022)
Where a SMILES comes first, the peptide text is derived from it. Bridges are numbered along the chain shown (N, C = ends). Where no end group is shown, it is not given here.

T1: cathepsin G (Homo sapiens, UniProt P08311)
T1 sequence (P08311 21-244): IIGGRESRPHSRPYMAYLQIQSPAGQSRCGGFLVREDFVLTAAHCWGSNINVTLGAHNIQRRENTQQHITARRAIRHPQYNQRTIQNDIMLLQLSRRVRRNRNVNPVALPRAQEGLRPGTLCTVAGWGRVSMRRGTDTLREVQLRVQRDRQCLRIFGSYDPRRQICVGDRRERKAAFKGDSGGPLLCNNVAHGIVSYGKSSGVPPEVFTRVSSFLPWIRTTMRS

T2: synthetic 24-108MDMX (p53-binding domain of MDMX) (UniProt O15151 24-108)
T2 sequence (looked up): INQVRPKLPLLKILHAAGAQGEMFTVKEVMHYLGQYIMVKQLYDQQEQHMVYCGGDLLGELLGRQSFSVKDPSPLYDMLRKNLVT


Experiments:
[1] = Circular dichroism spectroscopy, percent α-helix; type: physicochemical; conditions: CD spectroscopy
Excerpt: Circular Dichroism (CD) Spectroscopy.

[2] = target: T1, cathepsin G; assay: Proteolytic stability in the presence of cathepsin G; type: in vitro ADME; conditions: cathepsin G (25 μg/ml) in RPMI 1640; 100 μM peptide, 25 μg/mL cathepsin G, cell culture medium, room temperature
[3] = 25° C., PBS buffer, glutathione 10 mM, over 24 h
[4] = tested on: HCT116 p53^+/+; assay: Cell viability assay (CCK8), HCT116 p53+/+; type: cell-based, human; conditions: concentrations of up to 50 μM
[5] = tested on: HCT116 p53^−/−; assay: Cell viability assay (CCK8), HCT116 p53-/-; type: cell-based, human; conditions: concentrations of up to 50 μM
[6] = tested on: HCT116 p53^+/+ cells; assay: Cellular uptake by confocal microscopy; type: cell-based, human; conditions: FITC-labeled peptide, 20 μM, 4 h
Protocol: Cellular uptake of ^DTCPMI. […] Cells were then incubated with 20 μM FITC-^DTCPMI Ctrl. or FITC-^DTCPMI for 4 h. Cells were washed with Dulbecco's phosphate buffered saline, fixed with 4% (wt/vol) paraformaldehyde, finally incubated by DAPI to stain the cell nucleus. Imaged using an LSM 510 Zeiss Axiovert 200M (v4.0) confocal microscope. Images were analyzed using an LSM image browser.

[7] = target: T3, synthetic 25-109MDM2 (p53-binding domain of MDM2) (UniProt Q00987 25-109); assay: FP competition: the peptide displaces TAMRA-PMI (10 nM) from MDM2 (50 nM)
T3 construct: range 25-109

[8] = target: T2, synthetic 24-108MDMX (p53-binding …); assay: FP competition: the peptide displaces TAMRA-PMI (10 nM) from MDMX (50 nM)
[9] = target: T3, synthetic 25-109MDM2 (p53-binding …); assay: FP competition: the peptide displaces TAMRA-PMI (10 nM) from MDM2 (50 nM) [left panel]
[10] = target: T2, synthetic 24-108MDMX (p53-binding …); assay: FP competition: the peptide displaces TAMRA-PMI (10 nM) from MDMX (50 nM) [right panel]
[11] = target: T3, synthetic 25-109MDM2 (p53-binding …); assay: SPR competition in solution: MDM2 at 25 nM incubated with the peptide, free MDM2 read on a chip with immobilised 15-29p53
[12] = target: T3, synthetic 25-109MDM2 (p53-binding …); assay: as above; remark: listed apart in the source
[13] = target: T2, synthetic 24-108MDMX (p53-binding …); assay: SPR competition in solution: MDMX at 100 nM incubated with the peptide, free MDMX read on a chip with immobilised 15-29p53
[14] = target: T3, synthetic 25-109MDM2 (p53-binding …); assay: FP competition: the peptide displaces TAMRA-PMI (10 nM) from MDM2 (50 nM); remark: listed apart in the source
[15] = target: T2, synthetic 24-108MDMX (p53-binding …); assay: SPR competition in solution: MDMX at 100 nM incubated with the peptide, free MDMX read on a chip with immobilised 15-29p53; remark: listed apart in the source

Molecule	α-helix (%) ([1]; Table 3)	α-helix (%) ([1]; Table 7)	also measured
CC(=O)N[C@H]1CCCCNC(=S)SC[C@@H](C(=O)N[C@@H](Cc2ccc(O)cc2)C(=O)N[C@@H](Cc2c[nH]c3ccccc23)C(=O)N[C@@H](CC(N)=O)C(=O)N[C@@H](CC(C)C)C(=O)N[C@@H](CC(C)C)C(=O)N[C@@H](CO)C(=O)N2CCC[C@H]2C(N)=O)NC(=O)[C@H](C)NC(=O)[C@H](Cc2ccccc2)NC(=O)[C@H](CO)NC1=O [PMI(1,5)-a]	36	6.50	
CC(=O)N[C@H]1CSC(=S)NCCCC[C@@H](C(=O)N[C@@H](Cc2ccc(O)cc2)C(=O)N[C@@H](Cc2c[nH]c3ccccc23)C(=O)N[C@@H](CC(N)=O)C(=O)N[C@@H](CC(C)C)C(=O)N[C@@H](CC(C)C)C(=O)N[C@@H](CO)C(=O)N2CCC[C@H]2C(N)=O)NC(=O)[C@H](C)NC(=O)[C@H](Cc2ccccc2)NC(=O)[C@H](CO)NC1=O [PMI(1,5)-b]	7.6	8.38	
CC(=O)N[C@H](C(=O)N[C@H]1CCCCNC(=S)SC[C@@H](C(=O)N[C@@H](Cc2c[nH]c3ccccc23)C(=O)N[C@@H](CC(N)=O)C(=O)N[C@@H](CC(C)C)C(=O)N[C@@H](CC(C)C)C(=O)N[C@@H](CO)C(=O)N2CCC[C@H]2C(N)=O)NC(=O)[C@H](CCC(=O)O)NC(=O)[C@H](C)NC(=O)[C@H](Cc2ccccc2)NC1=O)[C@@H](C)O [PMI(2,6)-a]	5.9	15.3	
CC(=O)N[C@H](C(=O)N[C@H]1CSC(=S)NCCCC[C@@H](C(=O)N[C@@H](Cc2c[nH]c3ccccc23)C(=O)N[C@@H](CC(N)=O)C(=O)N[C@@H](CC(C)C)C(=O)N[C@@H](CC(C)C)C(=O)N[C@@H](CO)C(=O)N2CCC[C@H]2C(N)=O)NC(=O)[C@H](CCC(=O)O)NC(=O)[C@H](C)NC(=O)[C@H](Cc2ccccc2)NC1=O)[C@@H](C)O [PMI(2,6)-b]	3.1	4.81	
CC(=O)N[C@H](C(=O)N[C@@H](CO)C(=O)N[C@@H](Cc1ccccc1)C(=O)N[C@H]1CCCCNC(=S)SC[C@@H](C(=O)N[C@@H](CC(C)C)C(=O)N[C@@H](CC(C)C)C(=O)N[C@@H](CO)C(=O)N2CCC[C@H]2C(N)=O)NC(=O)[C@H](Cc2c[nH]c3ccccc23)NC(=O)[C@H](Cc2ccc(O)cc2)NC(=O)[C@H](CCC(=O)O)NC1=O)[C@@H](C)O [PMI(4,8)-a]	25	39.3	
CC(=O)N[C@H](C(=O)N[C@@H](CO)C(=O)N[C@@H](Cc1ccccc1)C(=O)N[C@H]1CSC(=S)NCCCC[C@@H](C(=O)N[C@@H](CC(C)C)C(=O)N[C@@H](CC(C)C)C(=O)N[C@@H](CO)C(=O)N2CCC[C@H]2C(N)=O)NC(=O)[C@H](Cc2c[nH]c3ccccc23)NC(=O)[C@H](Cc2ccc(O)cc2)NC(=O)[C@H](CCC(=O)O)NC1=O)[C@@H](C)O [PMI(4,8)-b]	5.6	9.15	
CC(=O)N[C@H](C(=O)N[C@@H](CO)C(=O)N[C@@H](Cc1ccccc1)C(=O)N[C@@H](C)C(=O)N[C@H]1CCCCNC(=S)SC[C@@H](C(=O)N[C@@H](CC(C)C)C(=O)N[C@@H](CO)C(=O)N2CCC[C@H]2C(N)=O)NC(=O)[C@H](CC(N)=O)NC(=O)[C@H](Cc2c[nH]c3ccccc23)NC(=O)[C@H](Cc2ccc(O)cc2)NC1=O)[C@@H](C)O [PMI(5,9)-a]	0	6.88	
CC(=O)N[C@H](C(=O)N[C@@H](CO)C(=O)N[C@@H](Cc1ccccc1)C(=O)N[C@@H](C)C(=O)N[C@H]1CSC(=S)NCCCC[C@@H](C(=O)N[C@@H](CC(C)C)C(=O)N[C@@H](CO)C(=O)N2CCC[C@H]2C(N)=O)NC(=O)[C@H](CC(N)=O)NC(=O)[C@H](Cc2c[nH]c3ccccc23)NC(=O)[C@H](Cc2ccc(O)cc2)NC1=O)[C@@H](C)O [PMI(5,9)-b]	0	9.58	
CC(=O)N[C@H](C(=O)N[C@@H](CO)C(=O)N[C@@H](Cc1ccccc1)C(=O)N[C@@H](C)C(=O)N[C@@H](CCC(=O)O)C(=O)N[C@@H](Cc1ccc(O)cc1)C(=O)N[C@@H](Cc1c[nH]c2ccccc12)C(=O)N[C@H]1CCCCNC(=S)SC[C@@H](C(N)=O)NC(=O)[C@H](CO)NC(=O)[C@H](CC(C)C)NC(=O)[C@H](CC(C)C)NC1=O)[C@@H](C)O [PMI(8,12)-a]	33	43.3	half-life at 100 μM [2]: ~8 h; breakdown of the DTC structure in reduced glutathione [3]: no apparent breakdown of the DTC structure was observed over 24 h
CC(=O)N[C@H](C(=O)N[C@@H](CO)C(=O)N[C@@H](Cc1ccccc1)C(=O)N[C@@H](C)C(=O)N[C@@H](CCC(=O)O)C(=O)N[C@@H](Cc1ccc(O)cc1)C(=O)N[C@@H](Cc1c[nH]c2ccccc12)C(=O)N[C@H]1CSC(=S)NCCCC[C@@H](C(N)=O)NC(=O)[C@H](CO)NC(=O)[C@H](CC(C)C)NC(=O)[C@H](CC(C)C)NC1=O)[C@@H](C)O [PMI(8,12)-b]	0	0.23	
CC(=O)N[C@H](C(=O)N[C@@H](CO)C(=O)N[C@@H](Cc1ccccc1)C(=O)N[C@@H](C)C(=O)N[C@@H](CCC(=O)O)C(=O)N[C@@H](Cc1ccc(O)cc1)C(=O)N[C@@H](Cc1c[nH]c2ccccc12)C(=O)N[C@@H](CC(N)=O)C(=O)N[C@@H](CC(C)C)C(=O)N[C@@H](CC(C)C)C(=O)N[C@@H](CO)C(=O)N1CCC[C@H]1C(N)=O)[C@@H](C)O [PMI-0, reference compound] (Ac-TSFAEYWNLLSP-NH2)	0	9.77	
CC(=O)N[C@H](C(=O)N[C@@H](CO)C(=O)N[C@@H](Cc1ccccc1)C(=O)N[C@@H](CCCCN)C(=O)N[C@@H](CCC(N)=O)C(=O)N[C@@H](Cc1ccc(O)cc1)C(=O)N[C@@H](Cc1c[nH]c2ccccc12)C(=O)N[C@@H](CS)C(=O)N[C@@H](CC(C)C)C(=O)N[C@@H](CC(C)C)C(=O)N[C@@H](CO)C(=O)N[C@@H](CCCNC(=N)N)C(N)=O)[C@@H](C)O [^DTCPMI Ctrl., reference compound]		16.6	anti-proliferative activity against HCT116 p53+/+ [4]: no anti-proliferative activity; anti-proliferative activity against HCT116 p53-/- [5]: no anti-proliferative activity; intracellular localization / cellular uptake (confocal microscopy) [6]: diffused intracellular localization, demonstrating efficient cellular uptake
Ac-TSFKEYWCLLSP-NH2 (bridge 4-8, Co-crystal with MDMX is PDB 5VK1; also called PMI(4, 8)-1) [PMI(4,8)-a]			IC50 (read off the curve) [7]: ~40 nM; IC50 (read off the curve) [8]: ~30 nM; IC50 (read off the curve) [9]: ~40 nM; IC50 (read off the curve) [10]: ~30 nM; IC50 (read off the curve) [11]: ~10 nM; IC50 (read off the curve) [12]: ~10 nM; IC50 (read off the curve) [13]: ~50 nM
Ac-TSFAEYWKLLSC-NH2 (bridge 8-12) [PMI(8,12)-a]			IC50 (read off the curve) [7]: ~30 nM; IC50 (read off the curve) [9]: ~30 nM; IC50 (read off the curve) [11]: ~10 nM; IC50 (read off the curve) [12]: ~10 nM; IC50 (read off the curve) [13]: 50 to 60 nM
QETFCDLWKLLP (peptide, UniProt P04637 16-27, looked up, bridge 5-9, range 16-27; also called stapled p53 peptide) [^DTCp53 (DTC-stapled 16-27p53, Ser20Cys, staple Cys20-Lys24)]			IC50 (read off the curve) [14]: ~300 nM; IC50 (read off the curve) [15]: ~100 nM
